Laboratory results reported in article PMC5218480 (PLoS ONE, 2017).

Tested on: MV-4-11 cells
Assay: Gene expression microarray analysis (Affymetrix PrimeView) and GSEA
Type: cell-based, human
Set-up: RFU PODN (11730768_x_at) / Fold change /veh PODN (11730768_x_at) / RFU LINC00158 (11744669_a_at) / Fold change /veh LINC00158 (11744669_a_at) / RFU DUSP10 (11751237_a_at) / Fold change /veh DUSP10 (11751237_a_at) / RFU ID3 (11757404_x_at) / Fold change /veh ID3 (11757404_x_at) / RFU PLEKHG5 (11737974_s_at) / Fold change /veh PLEKHG5 (11737974_s_at) / RFU LRRC4B (11730491_at) / Fold change /veh LRRC4B (11730491_at) / RFU GIMAP4 (11747438_a_at) / Fold change /veh GIMAP4 (11747438_a_at) / RFU KRT8 (11758183_x_at) / Fold change /veh KRT8 (11758183_x_at) / RFU CNN1 (11734310_a_at) / Fold change /veh CNN1 (11734310_a_at) / RFU VPS37D (11726825_at) / Fold change /veh VPS37D (11726825_at) / RFU C10orf10 (11716522_x_at) / Fold change /veh C10orf10 (11716522_x_at) / RFU KIR2DL2 /// KIR2DL4 /// KIR2DL5A /// KIR2DL5B /// KIR2DS1 /// KIR2DS2 /// KIR2DS3 /// KIR2DS4 /// KIR3DL3 /// KIR3DL3 /// KIR3DS1 (11738374_at) / Fold change /veh KIR2DL2 /// KIR2DL4 /// KIR2DL5A /// KIR2DL5B /// KIR2DS1 /// KIR2DS2 /// KIR2DS3 /// KIR2DS4 /// KIR3DL3 /// KIR3DL3 /// KIR3DS1 (11738374_at) / RFU C1QL1 (11718748_at) / Fold change /veh C1QL1 (11718748_at) / RFU TMPRSS4 (11747572_a_at) / Fold change /veh TMPRSS4 (11747572_a_at) / RFU HAMP (11756126_x_at) / Fold change /veh HAMP (11756126_x_at) / RFU RNFT2 (11725882_a_at) / Fold change /veh RNFT2 (11725882_a_at) / RFU NR4A2 (11747474_a_at) / Fold change /veh NR4A2 (11747474_a_at) / RFU ABCC12 (11746883_a_at) / Fold change /veh ABCC12 (11746883_a_at) / RFU TMEM136 (11760407_x_at) / Fold change /veh TMEM136 (11760407_x_at) / RFU CLDN22 /// WWC2 (11732394_at) / Fold change /veh CLDN22 /// WWC2 (11732394_at) / RFU HLA-DPB1 (11760878_x_at) / Fold change /veh HLA-DPB1 (11760878_x_at) / RFU SPINT1 (11716480_a_at) / Fold change /veh SPINT1 (11716480_a_at) / RFU GAP43 (11754022_s_at) / Fold change /veh GAP43 (11754022_s_at) / RFU A4GNT (11735810_at) / Fold change /veh A4GNT (11735810_at) / RFU PRB3 (11715151_x_at) / Fold change /veh PRB3 (11715151_x_at) / RFU TUBB4B (11761932_at) / Fold change /veh TUBB4B (11761932_at) / RFU CAPN14 (11732068_a_at) / Fold change /veh CAPN14 (11732068_a_at) / RFU TMCC2 (11721928_a_at) / Fold change /veh TMCC2 (11721928_a_at) / RFU IRGQ (11745062_a_at) / Fold change /veh IRGQ (11745062_a_at) / RFU FAM174B (11720279_a_at) / Fold change /veh FAM174B (11720279_a_at) / RFU TMPRSS4 (11748680_a_at) / Fold change /veh TMPRSS4 (11748680_a_at) / RFU FAM212B (11763350_a_at) / Fold change /veh FAM212B (11763350_a_at) / RFU PLEKHG5 (11743358_a_at) / Fold change /veh PLEKHG5 (11743358_a_at) / RFU ZSCAN30 (11745921_a_at) / Fold change /veh ZSCAN30 (11745921_a_at) / RFU CMKLR1 (11741424_a_at) / Fold change /veh CMKLR1 (11741424_a_at) / RFU LOC101060620 /// MAPK8IP1 (11723275_at) / Fold change /veh LOC101060620 /// MAPK8IP1 (11723275_at) / RFU SPTSSB (11747773_x_at) / Fold change /veh SPTSSB (11747773_x_at) / RFU PRSS12 (11739890_at) / Fold change /veh PRSS12 (11739890_at) / RFU BIN1 (11741810_x_at) / Fold change /veh BIN1 (11741810_x_at) / RFU WNT11 (11732464_a_at) / Fold change /veh WNT11 (11732464_a_at) / RFU C10orf10 (11716521_a_at) / Fold change /veh C10orf10 (11716521_a_at) / RFU C5orf56 (11738089_at) / Fold change /veh C5orf56 (11738089_at) / RFU CYB561 (11721691_x_at) / Fold change /veh CYB561 (11721691_x_at) / RFU ANKRD19P (11752326_a_at) / Fold change /veh ANKRD19P (11752326_a_at) / RFU OR2T12 /// OR2T33 /// OR2T8 (11738714_s_at) / Fold change /veh OR2T12 /// OR2T33 /// OR2T8 (11738714_s_at) / RFU VCAN (11748164_a_at) / Fold change /veh VCAN (11748164_a_at) / RFU JSRP1 (11732532_at) / Fold change /veh JSRP1 (11732532_at) / RFU KRTAP10-11 (11738290_x_at) / Fold change /veh KRTAP10-11 (11738290_x_at) / RFU MYO3A (11730013_a_at) / Fold change /veh MYO3A (11730013_a_at) / RFU EBF3 (11725865_a_at) / Fold change /veh EBF3 (11725865_a_at) / RFU CAMK2N1 (11719241_x_at) / Fold change /veh CAMK2N1 (11719241_x_at) / RFU C5orf56 (11738088_a_at) / Fold change /veh C5orf56 (11738088_a_at) / RFU OLFML3 (11715873_a_at) / Fold change /veh OLFML3 (11715873_a_at) / RFU LOC100653217 /// NTM (11731650_a_at) / Fold change /veh LOC100653217 /// NTM (11731650_a_at) / RFU MAPK11 (11762145_a_at) / Fold change /veh MAPK11 (11762145_a_at) / RFU FIZ1 (11724087_x_at) / Fold change /veh FIZ1 (11724087_x_at) / RFU OASL (11726364_x_at) / Fold change /veh OASL (11726364_x_at) / RFU SOX15 (11748057_x_at) / Fold change /veh SOX15 (11748057_x_at) / RFU CD79A (11719716_a_at) / Fold change /veh CD79A (11719716_a_at) / RFU HIST1H1D (11736915_at) / Fold change /veh HIST1H1D (11736915_at) / RFU CASKIN2 (11723855_a_at) / Fold change /veh CASKIN2 (11723855_a_at) / RFU LOC730098 (11760151_x_at) / Fold change /veh LOC730098 (11760151_x_at) / RFU OR4N2 (11742367_at) / Fold change /veh OR4N2 (11742367_at) / RFU PRRT2 (11749266_a_at) / Fold change /veh PRRT2 (11749266_a_at) / RFU SNX32 (11753110_a_at) / Fold change /veh SNX32 (11753110_a_at) / RFU CDHR5 (11726645_a_at) / Fold change /veh CDHR5 (11726645_a_at) / RFU RCAN1 (11760418_a_at) / Fold change /veh RCAN1 (11760418_a_at) / RFU FAM167A (11723789_a_at) / Fold change /veh FAM167A (11723789_a_at) / RFU FAM26E (11764081_at) / Fold change /veh FAM26E (11764081_at) / RFU ISYNA1 (11749810_s_at) / Fold change /veh ISYNA1 (11749810_s_at) / RFU ACY1 (11761880_at) / Fold change /veh ACY1 (11761880_at) / RFU 11764098_at / Fold change /veh 11764098_at / RFU SAMD14 (11745864_x_at) / Fold change /veh SAMD14 (11745864_x_at) / RFU NPB (11741838_a_at) / Fold change /veh NPB (11741838_a_at) / RFU TMPRSS6 (11731388_a_at) / Fold change /veh TMPRSS6 (11731388_a_at) / RFU KRTAP10-2 (11738614_at) / Fold change /veh KRTAP10-2 (11738614_at) / RFU ARHGAP8 /// PRR5-ARHGAP8 (11727945_x_at) / Fold change /veh ARHGAP8 /// PRR5-ARHGAP8 (11727945_x_at) / RFU KRTAP5-7 /// NADSYN1 (11734609_at) / Fold change /veh KRTAP5-7 /// NADSYN1 (11734609_at) / RFU RASL12 (11751679_a_at) / Fold change /veh RASL12 (11751679_a_at) / RFU CDKN2B (11736163_a_at) / Fold change /veh CDKN2B (11736163_a_at) / RFU PRF1 (11729649_at) / Fold change /veh PRF1 (11729649_at) / RFU, ZNF638 /// ZNF638-IT1 / Fold change vs veh, ZNF638 /// ZNF638-IT1 / RFU, PANK3 / Fold change vs veh, PANK3 / RFU, SH3YL1 / Fold change vs veh, SH3YL1 / RFU, ZEB2 / Fold change vs veh, ZEB2 / RFU, NRIP1 / Fold change vs veh, NRIP1 / RFU, PTTG1IP / Fold change vs veh, PTTG1IP / RFU, CAPN2 / Fold change vs veh, CAPN2 / RFU, MED14 / Fold change vs veh, MED14 / RFU, SNORA58 / Fold change vs veh, SNORA58 / RFU, C1orf63 / Fold change vs veh, C1orf63 / RFU, LRRFIP1 / Fold change vs veh, LRRFIP1 / RFU, NDUFAF7 / Fold change vs veh, NDUFAF7 / RFU, SLC12A2 / Fold change vs veh, SLC12A2 / RFU, IBTK / Fold change vs veh, IBTK / RFU, ESF1 / Fold change vs veh, ESF1 / Fold change vs veh, TMEM50B / RFU, TAOK1 / Fold change vs veh, TAOK1 / RFU, ACBD3 / Fold change vs veh, ACBD3 / RFU, TMA16 / Fold change vs veh, TMA16 / RFU, RWDD3 / Fold change vs veh, RWDD3 / RFU, BCAT1 / Fold change vs veh, BCAT1 / RFU, EDEM3 / Fold change vs veh, EDEM3 / RFU, TMEM33 / Fold change vs veh, TMEM33 / RFU, WDR75 / Fold change vs veh, WDR75 / RFU, AHCTF1 / Fold change vs veh, AHCTF1 / RFU, TFRC / Fold change vs veh, TFRC / RFU, ZDHHC17 / Fold change vs veh, ZDHHC17 / RFU, NOM1 / Fold change vs veh, NOM1 / RFU, ARL8B / Fold change vs veh, ARL8B / RFU, ZBTB11 / Fold change vs veh, ZBTB11 / RFU, TAMM41 / Fold change vs veh, TAMM41 / RFU, KIAA1704 /// LOC100996395 / Fold change vs veh, KIAA1704 /// LOC100996395 / RFU, ING1 / Fold change vs veh, ING1 / RFU, TRMT61B / Fold change vs veh, TRMT61B / RFU, FUBP3 / Fold change vs veh, FUBP3 / RFU, TP53 / Fold change vs veh, TP53 / RFU, TNKS2 / Fold change vs veh, TNKS2 / RFU, ZFP14 / Fold change vs veh, ZFP14 / RFU, ACTR2 / Fold change vs veh, ACTR2 / RFU, PPP3R1 / Fold change vs veh, PPP3R1 / RFU, PIK3R1 / Fold change vs veh, PIK3R1 / RFU, HNRNPA1 / Fold change vs veh, HNRNPA1 / RFU, RNF170 / Fold change vs veh, RNF170 / RFU, ZNF28 / Fold change vs veh, ZNF28 / RFU, RNGTT / Fold change vs veh, RNGTT / RFU, OGT / Fold change vs veh, OGT / RFU, BRD1 / Fold change vs veh, BRD1 / RFU, MARS / Fold change vs veh, MARS / RFU, ZNF655 / Fold change vs veh, ZNF655 / RFU, FAHD1 / Fold change vs veh, FAHD1 / RFU, BDP1 / Fold change vs veh, BDP1 / RFU, LRRCC1 / Fold change vs veh, LRRCC1 / RFU, ARID1A / Fold change vs veh, ARID1A / RFU, ZNF146 / Fold change vs veh, ZNF146 / RFU, ZNF330 / Fold change vs veh, ZNF330 / RFU, GPN3 / Fold change vs veh, GPN3 / RFU, C9orf123 / Fold change vs veh, C9orf123 / RFU, N4BP2L2 / Fold change vs veh, N4BP2L2 / RFU, ARFIP1 / Fold change vs veh, ARFIP1 / RFU, FAM179B / Fold change vs veh, FAM179B / RFU, BCL10 / Fold change vs veh, BCL10 / RFU, UHRF1BP1L / Fold change vs veh, UHRF1BP1L / RFU, BET1 / Fold change vs veh, BET1 / RFU, CNOT2 / Fold change vs veh, CNOT2 / RFU, ZNF268 / Fold change vs veh, ZNF268 / Fold change vs veh, ZNF507 / RFU, DGCR2 / Fold change vs veh, DGCR2 / RFU, WDSUB1 / Fold change vs veh, WDSUB1 / Fold change vs veh, HSP90B1 /// MIR3652 / RFU, ADSS / Fold change vs veh, ADSS / RFU, GK / Fold change vs veh, GK / RFU, ZNF148 / Fold change vs veh, ZNF148 / RFU, TAF9 / Fold change vs veh, TAF9 / RFU, SLC1A5 / Fold change vs veh, SLC1A5 / RFU, SLMO2 / Fold change vs veh, SLMO2 / RFU, ABCC4 / Fold change vs veh, ABCC4 / RFU, LOC101060439 /// RAP1B / Fold change vs veh, LOC101060439 /// RAP1B / RFU, RFX7 / Fold change vs veh, RFX7 / RFU, GTPBP10 / Fold change vs veh, GTPBP10 / RFU, CNEP1R1 / Fold change vs veh, CNEP1R1 / RFU, BIVM-ERCC5 /// ERCC5 / Fold change vs veh, BIVM-ERCC5 /// ERCC5 / RFU, ILF3 / Fold change vs veh, ILF3 / RFU 11762660_at / Fold change /veh 11762660_at / RFU VCAN (11757783_s_at) / Fold change /veh VCAN (11757783_s_at) / RFU DDX43 (11728927_at) / Fold change /veh DDX43 (11728927_at) / RFU KRT8 (11758188_x_at) / Fold change /veh KRT8 (11758188_x_at) / RFU NKD1 (11759106_at) / Fold change /veh NKD1 (11759106_at) / RFU SRD5A1 (11742802_a_at) / Fold change /veh SRD5A1 (11742802_a_at) / RFU TPSAB1 /// TPSB2 (11721975_s_at) / Fold change /veh TPSAB1 /// TPSB2 (11721975_s_at) / RFU GSTM3 (11746129_a_at) / Fold change /veh GSTM3 (11746129_a_at) / RFU IL23R (11737362_x_at) / Fold change /veh IL23R (11737362_x_at) / RFU TMEM51 (11727254_a_at) / Fold change /veh TMEM51 (11727254_a_at) / RFU PIWIL2 (11732686_x_at) / Fold change /veh PIWIL2 (11732686_x_at) / RFU ORM1 (11744905_x_at) / Fold change /veh ORM1 (11744905_x_at) / RFU CCDC152 (11743942_at) / Fold change /veh CCDC152 (11743942_at) / RFU ECM1 (11717891_a_at) / Fold change /veh ECM1 (11717891_a_at) / RFU IL23R (11748794_a_at) / Fold change /veh IL23R (11748794_a_at) / RFU TNFAIP8L3 (11732012_x_at) / Fold change /veh TNFAIP8L3 (11732012_x_at) / RFU MBOAT4 (11741988_at) / Fold change /veh MBOAT4 (11741988_at) / RFU 11764193_at / Fold change /veh 11764193_at / RFU TMEM53 (11763286_at) / Fold change /veh TMEM53 (11763286_at) / RFU MAGEB2 (11727129_at) / Fold change /veh MAGEB2 (11727129_at) / RFU TMEM200A (11744735_a_at) / Fold change /veh TMEM200A (11744735_a_at) / RFU CCDC152 (11751479_a_at) / Fold change /veh CCDC152 (11751479_a_at) / RFU FAM211A (11726209_a_at) / Fold change /veh FAM211A (11726209_a_at) / RFU RGS16 (11746705_a_at) / Fold change /veh RGS16 (11746705_a_at) / RFU VCAN (11755009_s_at) / Fold change /veh VCAN (11755009_s_at) / RFU RHOB (11743442_s_at) / Fold change /veh RHOB (11743442_s_at) / RFU RGS16 (11720943_a_at) / Fold change /veh RGS16 (11720943_a_at) / RFU RGS16 (11720944_at) / Fold change /veh RGS16 (11720944_at) / RFU, VPS4B / Fold change vs veh, VPS4B / RFU, CREB1 / Fold change vs veh, CREB1 / RFU, DNAJC13 / Fold change vs veh, DNAJC13 / RFU, GNAQ / Fold change vs veh, GNAQ / RFU, CDK5R1 / Fold change vs veh, CDK5R1 / RFU, ZRANB3 / Fold change vs veh, ZRANB3 / RFU, CUL4A / Fold change vs veh, CUL4A / RFU, CCNY / Fold change vs veh, CCNY / RFU, UFL1 / Fold change vs veh, UFL1 / RFU, COG3 / Fold change vs veh, COG3 / RFU, DIAPH2 / Fold change vs veh, DIAPH2 / RFU, SKA2 / Fold change vs veh, SKA2 / RFU, AFF3 / Fold change vs veh, AFF3 / RFU, LMF1 / Fold change vs veh, LMF1 / RFU, IPO11 / Fold change vs veh, IPO11 / RFU, DFFB / Fold change vs veh, DFFB / RFU, FOXP1 / Fold change vs veh, FOXP1 / RFU, CARD8 / Fold change vs veh, CARD8 / RFU, STRN3 / Fold change vs veh, STRN3 / RFU, ADK / Fold change vs veh, ADK / RFU, RASSF2 / Fold change vs veh, RASSF2 / RFU, WIPF1 / Fold change vs veh, WIPF1 / RFU, LARP1B / Fold change vs veh, LARP1B / RFU, RASA1 / Fold change vs veh, RASA1 / RFU, RB1 / Fold change vs veh, RB1 / RFU, PPFIA1 / Fold change vs veh, PPFIA1 / RFU, MAT2A / Fold change vs veh, MAT2A / RFU, CCT5 / Fold change vs veh, CCT5 / RFU, WDR92 / Fold change vs veh, WDR92 / RFU, CUX1 / Fold change vs veh, CUX1 / RFU, TTC7A / Fold change vs veh, TTC7A / RFU, TMEM135 / Fold change vs veh, TMEM135 / RFU, DEPTOR / Fold change vs veh, DEPTOR / RFU, CPM / Fold change vs veh, CPM / RFU, DNAJB6 / Fold change vs veh, DNAJB6 / RFU, CACNA2D3 / Fold change vs veh, CACNA2D3 / RFU, DTX4 / Fold change vs veh, DTX4 / RFU, TFCP2 / Fold change vs veh, TFCP2 / RFU, GMCL1 /// GMCL1P1 / Fold change vs veh, GMCL1 /// GMCL1P1 / RFU, AEBP2 / Fold change vs veh, AEBP2 / RFU, SNHG1 /// SNORD22 /// SNORD25 /// SNORD26 /// SNORD27 /// SNORD28 /// SNORD29 /// SNORD31 / Fold change vs veh, SNHG1 /// SNORD22 /// SNORD25 /// SNORD26 /// SNORD27 /// SNORD28 /// SNORD29 /// SNORD31 / Fold change (Aza/veh), C12orf56 (ProbeSet 11735607_a_at) / Fold change (ACY-1035/veh), C12orf56 (ProbeSet 11735607_a_at) / Fold change (Aza/veh), FGFR1OP (ProbeSet 11751329_s_at) / Fold change (ACY-1035/veh), FGFR1OP (ProbeSet 11751329_s_at) / Fold change (Aza/veh), VPS36 (ProbeSet 11739960_a_at) / Fold change (ACY-1035/veh), VPS36 (ProbeSet 11739960_a_at) / RFU SYPL1 (11715823_x_at) / Fold change /veh SYPL1 (11715823_x_at) / RFU IGFBP7 (11715501_s_at) / Fold change /veh IGFBP7 (11715501_s_at) / RFU REEP3 (11722064_at) / Fold change /veh REEP3 (11722064_at) / RFU IGLL1 (11728026_x_at) / Fold change /veh IGLL1 (11728026_x_at): dose or concentration left out as unconfirmed
Conditions: ProbeSet 11730252_s_at; LIST B

Nc1ncn([C@@H]2O[C@H](CO)[C@@H](O)[C@H]2O)c(=O)n1 [azacitidine]
Fold change vs veh, AHCTF1: 0.94
